For assay [1], the target named is T1, human muscarinic acetylcholine M3 receptor (Homo sapiens, UniProt P20309).
T1 construct: expressed in transfected cells; host or cells: CHO-K1 (Chinese Hamster Ovary) cell membranes
The experiment in a line: Muscarinic 3 receptor binding assay ([3H]NMS competition, SPA), single concentration 1 μM. Particulars: 1 μM compound; % inhibition specific [3H]-NMS binding. Summed up: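 CHO-K1 membranes expressing human M3 on SPA beads, competition with 0.1 nM [3H]NMS (quarter Kd) in 20 mM HEPES pH 7.4, 5 mM MgCl2, 0.1% BSA, 1% DMSO; compound at 1 μM. 16 h at room temperature. Value is % inhibition of specific binding, non-specific defined with 1 μM atropine.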

Assay [2] has as its target T2, Adrenergic β2 (Homo sapiens, UniProt P07550).
T2 construct: Adherent H292 cells are removed from tissue culture flasks by treatment with Accutase™ cell detachment solution; endogenous in cells; host or cells: H292 cells
In words: Adrenergic β2 mediated cAMP production in H292 cells, single concentration 1 μM. It is filed as cell-based. Particulars: NCI-H292, 1 μM compound, cAMP as percentage of the maximum response generated by 1E-07M formoterol, read-out: β2 % effect @1 uM. The procedure, abridged:
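H292 cells pretreated with rolipram (300 μM final) 10 min, then compound at 1 μM final, 1% DMSO, 60 min at room temperature in HBSS/10 mM HEPES pH 7.4/5 mM glucose. Lysate cAMP quantified by AlphaScreen against a standard curve, as % of maximal response to 1E-07M formoterol.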
(Cyclic AMP is a second messenger, typically raised through Gs and lowered through Gi signalling.)

Experimental findings from patent US8476265B2, “Compounds-801” (AstraZeneca AB, priority 2010, dated 2013) are described below.

By inhibition is commonly meant the relative decrease from the control value, in per cent.

T2 sequence (P07550 whole entry): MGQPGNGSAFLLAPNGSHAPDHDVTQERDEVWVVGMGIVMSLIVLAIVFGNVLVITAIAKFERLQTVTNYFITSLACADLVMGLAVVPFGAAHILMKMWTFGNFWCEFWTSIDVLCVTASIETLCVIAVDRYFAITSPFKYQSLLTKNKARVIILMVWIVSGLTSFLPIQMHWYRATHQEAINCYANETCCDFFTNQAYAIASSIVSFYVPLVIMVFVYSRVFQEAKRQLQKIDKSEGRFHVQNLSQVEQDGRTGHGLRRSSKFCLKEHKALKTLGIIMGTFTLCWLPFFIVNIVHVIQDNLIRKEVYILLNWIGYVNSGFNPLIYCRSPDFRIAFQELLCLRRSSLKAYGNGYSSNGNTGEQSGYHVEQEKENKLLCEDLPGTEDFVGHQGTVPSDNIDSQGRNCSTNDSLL
T1 sequence (P20309 whole entry): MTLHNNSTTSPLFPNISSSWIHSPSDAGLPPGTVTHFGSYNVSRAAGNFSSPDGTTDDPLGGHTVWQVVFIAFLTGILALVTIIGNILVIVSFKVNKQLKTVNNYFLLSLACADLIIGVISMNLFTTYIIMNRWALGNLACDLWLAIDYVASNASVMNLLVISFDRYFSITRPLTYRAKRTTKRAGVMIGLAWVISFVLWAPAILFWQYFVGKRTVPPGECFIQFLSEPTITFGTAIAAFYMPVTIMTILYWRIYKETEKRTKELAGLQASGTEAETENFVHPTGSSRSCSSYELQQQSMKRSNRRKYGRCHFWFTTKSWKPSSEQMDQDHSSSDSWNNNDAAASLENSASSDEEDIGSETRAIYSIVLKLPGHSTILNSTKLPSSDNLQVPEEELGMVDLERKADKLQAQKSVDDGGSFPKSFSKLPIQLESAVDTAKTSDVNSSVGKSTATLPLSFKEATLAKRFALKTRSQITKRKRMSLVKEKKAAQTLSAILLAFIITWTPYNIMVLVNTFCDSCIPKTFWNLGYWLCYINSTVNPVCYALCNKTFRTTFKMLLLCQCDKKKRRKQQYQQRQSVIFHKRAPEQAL

For `O=C1COc2c(CCNCCN(C(=O)CCOCCc3cccc(CN4CCC5(CC4)CN(C(=O)CC4C[C@@H]6CC[C@H]4C6)CCO5)c3)C3CCCCC3)ccc(O)c2N1` (stereo partly drawn) [Example 131, 3-(3-((4-(2-((1S,4R)-Bicyclo[2.2.1]heptan-2-yl)acetyl)-1-oxa-4,9-diazaspiro[5.5]undecan-9-yl)methyl)phenethoxy)-N-cyclohexyl-N-(2-(2-(5-hydroxy-3-oxo-3,4-dihydro-2H-benzo[b][1,4]oxazin-8-yl)ethylamino)ethyl)propanamide], the inhibition at 1 µM in assay [1] stood at 99%. Further, the percent of formoterol maximum response at 1 µM in assay [2] amounted to 97%.
In the same order, the values of `O=C1COc2c(CCNCCN(C(=O)CCOCCc3cccc(CN4CCC5(CC4)CN(C(=O)[C@H](O)c4ccccc4)CCO5)c3)C3CCCCC3)ccc(O)c2N1` [Example 166, (R)-N-Cyclohexyl-3-(3-((4-(2-hydroxy-2-phenylacetyl)-1-oxa-4,9-diazaspiro[5.5]undecan-9-yl)methyl)phenethoxy)-N-(2-(2-(5-hydroxy-3-oxo-3,4-dihydro-2H-benzo[b][1,4]oxazin-8-yl)ethylamino)ethyl)propanamide] are 100% and 96%.
In the case of `O=C1COc2c(CCNCCN(C(=O)CCOCCc3cccc(CN4CCC5(CC4)CN(C(=O)c4cc(Br)c[nH]4)CCO5)c3)C3CCCCC3)ccc(O)c2N1` [Example 132, 3-(3-((4-(4-Bromo-1H-pyrrole-2-carbonyl)-1-oxa-4,9-diazaspiro[5.5]undecan-9-yl)methyl)phenethoxy)-N-cyclohexyl-N-(2-(2-(5-hydroxy-3-oxo-3,4-dihydro-2H-benzo[b][1,4]oxazin-8-yl)ethylamino)ethyl)propanamide], in assay [1], the inhibition at 1 µM is 101%. For the same compound, in assay [2], the percent of formoterol maximum response at 1 µM stood at 96%.
For `CC(C)(C)C(=O)N1CCOC2(CCN(Cc3cccc(CCOCCC(=O)N(CCNCCc4ccc(O)c5c4OCC(=O)N5)C4CCCCC4)c3)CC2)C1` [Example 155, N-Cyclohexyl-N-(2-(2-(5-hydroxy-3-oxo-3,4-dihydro-2H-benzo[b][1,4]oxazin-8-yl)ethylamino)ethyl)-3-(3-((4-pivaloyl-1-oxa-4,9-diazaspiro[5.5]undecan-9-yl)methyl)phenethoxy)propanamide], in that order: 99% and 93%.
In the same order, the values of `O=C1COc2c(CCNCCN(C(=O)CCOCCc3cccc(CN4CCC5(CC4)CN(C(=O)Cc4ccsc4)CCO5)c3)C3CCCCC3)ccc(O)c2N1` [Example 109, N-Cyclohexyl-N-(2-(2-(5-hydroxy-3-oxo-3,4-dihydro-2H-benzo[b][1,4]oxazin-8-yl)ethylamino)ethyl)-3-(3-((4-(2-(thiophen-3-yl)acetyl)-1-oxa-4,9-diazaspiro[5.5]undecan-9-yl)methyl)phenethoxy)propanamide] are 99% and 98%.
Regarding `COC(C(=O)N1CCOC2(CCN(Cc3cccc(CCOCCC(=O)N(CCNCCc4ccc(O)c5c4OCC(=O)N5)C4CCCCC4)c3)CC2)C1)c1ccccc1` (centres unmarked) [Example 171, N-Cyclohexyl-N-(2-(2-(5-hydroxy-3-oxo-3,4-dihydro-2H-benzo[b][1,4]oxazin-8-yl)ethylamino)ethyl)-3-(3-((4-(2-methoxy-2-phenylacetyl)-1-oxa-4,9-diazaspiro[5.5]undecan-9-yl)methyl)phenethoxy)propanamide], the inhibition at 1 µM in assay [1] was 96%. The percent of formoterol maximum response at 1 µM in assay [2] was determined as 94%.
In the same order, the values of `O=C1COc2c(CCNCCN(C(=O)CCOCCc3cccc(CN4CCC5(CC4)CN(C(=O)c4cccs4)CCO5)c3)C3CCCCC3)ccc(O)c2N1` [Example 153, N-Cyclohexyl-N-(2-(2-(5-hydroxy-3-oxo-3,4-dihydro-2H-benzo[b][1,4]oxazin-8-yl)ethylamino)ethyl)-3-(3-((4-(thiophene-2-carbonyl)-1-oxa-4,9-diazaspiro[5.5]undecan-9-yl)methyl)phenethoxy)propanamide] are 101% and 98%.
For `O=C1COc2c(CCNCCN(C(=O)CCOCCc3cccc(CN4CCC5(CC4)CN(C(=O)c4cnc(-c6ccccc6)[nH]4)CCO5)c3)C3CCCCC3)ccc(O)c2N1` [Example 145, N-Cyclohexyl-N-(2-(2-(5-hydroxy-3-oxo-3,4-dihydro-2H-benzo[b][1,4]oxazin-8-yl)ethylamino)ethyl)-3-(3-((4-(2-phenyl-1H-imidazole-5-carbonyl)-1-oxa-4,9-diazaspiro[5.5]undecan-9-yl)methyl)phenethoxy)propanamide], in that order: 90% and 117%.
For the compound `O=C1COc2c(CCNCCN(C(=O)CCOCCc3cccc(CN4CCC5(CC4)CN(C(=O)Cc4ccccc4F)CCO5)c3)C3CCCCC3)ccc(O)c2N1` [Example 169, N-Cyclohexyl-3-(3-((4-(2-(2-fluorophenyl)acetyl)-1-oxa-4,9-diazaspiro[5.5]undecan-9-yl)methyl)phenethoxy)-N-(2-(2-(5-hydroxy-3-oxo-3,4-dihydro-2H-benzo[b][1,4]oxazin-8-yl)ethylamino)ethyl)propanamide], the inhibition at 1 µM in assay [1] was 101%. In assay [2], the percent of formoterol maximum response at 1 µM was 102%.
For `O=C1COc2c(CCNCCN(C(=O)CCOCCc3cccc(CN4CCC5(CC4)CN(C(=O)c4cc6cc(F)ccc6[nH]4)CCO5)c3)C3CCCCC3)ccc(O)c2N1` [Example 107, N-Cyclohexyl-3-(3-((4-(5-fluoro-1H-indole-2-carbonyl)-1-oxa-4,9-diazaspiro[5.5]undecan-9-yl)methyl)phenethoxy)-N-(2-(2-(5-hydroxy-3-oxo-3,4-dihydro-2H-benzo[b][1,4]oxazin-8-yl)ethylamino)ethyl)propanamide], in that order: 100% and 101%.
For `Cc1cc(C)n2nc(C(=O)N3CCOC4(CCN(Cc5cccc(CCOCCC(=O)N(CCNCCc6ccc(O)c7c6OCC(=O)N7)C6CCCCC6)c5)CC4)C3)cc2n1` [Example 142, N-Cyclohexyl-3-(3-((4-(5,7-dimethylpyrazolo[1,5-a]pyrimidine-2-carbonyl)-1-oxa-4,9-diazaspiro[5.5]undecan-9-yl)methyl)phenethoxy)-N-(2-(2-(5-hydroxy-3-oxo-3,4-dihydro-2H-benzo[b][1,4]oxazin-8-yl)ethylamino)ethyl)propanamide], in that order: 100% and 83%.
As for `Cc1ccccc1CC(=O)N1CCOC2(CCN(Cc3cccc(CCOCCC(=O)N(CCNCCc4ccc(O)c5c4OCC(=O)N5)C4CCCCC4)c3)CC2)C1` [Example 139, N-Cyclohexyl-N-(2-(2-(5-hydroxy-3-oxo-3,4-dihydro-2H-benzo[b][1,4]oxazin-8-yl)ethylamino)ethyl)-3-(3-((4-(2-o-tolylacetyl)-1-oxa-4,9-diazaspiro[5.5]undecan-9-yl)methyl)phenethoxy)propanamide], the inhibition at 1 µM in assay [1] is 100%. In addition, the percent of formoterol maximum response at 1 µM in assay [2] stood at 94%.
For `O=C1COc2c(CCNCCN(C(=O)CCOCCc3cccc(CN4CCC5(CC4)CN(C(=O)c4cccc6cccnc46)CCO5)c3)C3CCCCC3)ccc(O)c2N1` [Example 100, N-Cyclohexyl-N-(2-(2-(5-hydroxy-3-oxo-3,4-dihydro-2H-benzo[b][1,4]oxazin-8-yl)ethylamino)ethyl)-3-(3-((4-(quinoline-8-carbonyl)-1-oxa-4,9-diazaspiro[5.5]undecan-9-yl)methyl)phenethoxy)propanamide], in that order: 96% and 95%.
For `O=C1COc2c(CCNCCN(C(=O)CCOCCc3cccc(CN4CCC5(CC4)CN(C(=O)c4ccc(F)cc4F)CCO5)c3)C3CCCCC3)ccc(O)c2N1` [Example 162, N-Cyclohexyl-3-(3-((4-(2,4-difluorobenzoyl)-1-oxa-4,9-diazaspiro[5.5]undecan-9-yl)methyl)phenethoxy)-N-(2-(2-(5-hydroxy-3-oxo-3,4-dihydro-2H-benzo[b][1,4]oxazin-8-yl)ethylamino)ethyl)propanamide], in that order: 100% and 95%.
In the same order, the values of `O=C1COc2c(CCNCCN(C(=O)CCOCCc3cccc(CN4CCC5(CC4)CN(C(=O)Cc4noc6ccccc46)CCO5)c3)C3CCCCC3)ccc(O)c2N1` [Example 124, 3-(3-((4-(2-(Benzo[d]isoxazol-3-yl)acetyl)-1-oxa-4,9-diazaspiro[5.5]undecan-9-yl)methyl)phenethoxy)-N-cyclohexyl-N-(2-(2-(5-hydroxy-3-oxo-3,4-dihydro-2H-benzo[b][1,4]oxazin-8-yl)ethylamino)ethyl)propanamide] are 100% and 101%.
On to `O=C1COc2c(CCNCCN(C(=O)CCOCCc3cccc(CN4CCC5(CC4)CN(C(=O)C4CC=CCC4)CCO5)c3)C3CCCCC3)ccc(O)c2N1` (centres unmarked) [Example 105, 3-(3-((4-(Cyclohex-3-enecarbonyl)-1-oxa-4,9-diazaspiro[5.5]undecan-9-yl)methyl)phenethoxy)-N-cyclohexyl-N-(2-(2-(5-hydroxy-3-oxo-3,4-dihydro-2H-benzo[b][1,4]oxazin-8-yl)ethylamino)ethyl)propanamide], for which the inhibition at 1 µM in assay [1] was found to be 99%. Also, the percent of formoterol maximum response at 1 µM in assay [2] is 109%.
